Experimental data as given in patent US20020137030A1, “METHOD OF DETECTION OF NEOPLASTIC CELLS” (JOHN HOPKINS UNIVERSITY SCHOOL OF MEDICINE, priority 1995, published 2002).
“Also recorded” adds a separate entry of the source.

How the values were obtained:
Type in all cases: cell-based, human
[1] = system: cancer cell lines; experiment: Effects on cell growth, morphology and viability of cancer cell lines; details: non-specific; also seen in lines with homozygous deletions of p16, independent of methylation status
Procedure: (§1) Cells were grown in RPMI 1640 with 5-10% fetal calf serum depending on the growth requirements of each line. To assess re-expression, 5-deoxyazacytidine was supplemented to the medium at concentrations of […], and cells were harvested after three and five days.
However, these effects were non-specific and observed in cell lines with homozygous deletions of p16, and with retention of p16 alleles independent of methylation status. Therefore, we cannot attribute these non-specific effects to re-expression of p16, since other genes might also be affected by azacytidine.

[2] = system: p16; experiment: Re-expression of p16 mRNA (RT-PCR) after 5-deoxyazacytidine in colon cancer cell lines RKO and SW480; details: 3 days
Procedure: (§2) Total RNA was extracted from cell lines by the guanidium-isothiocyanate-phenol-chloroform method (Chomczynski, P. & Sacchi, N., Analyt. Biochem, 162:156-159, 1987). Total RNA […] or poly-A (0.5 mg) was reverse transcribed by using Superscript II RNaseH^− (Gibco-BRL) reverse transcriptase (200 units) in the presence of hexamers (Pharmacia) and dNTP (Gibco-BRL). The cDNA was then amplified by PCR using the forward primer for exon 1 and the reverse primer for exons 2 or 3 (Kamb, et al., Science 264:436-440, 1994; and Serrano, et al., Nature 366:704-707, 1993) of p16 yielding a 428 or […] fragment respectively, which was run on 1.5% agarose gel. As a control, the […] fragment of p53 was amplified simultaneously. All reactions were repeated at least once. p16 primer sequence were as follows:
In the methylation studies, the cDNA was then amplified by PCR using the forward primer for exon 1 and the reverse primer for exons 2 or 3 of CDKN2/p16 yielding a 428 or […] fragment respectively, which was run on 1.5% agarose gel. As a control, the […] fragment of p53 (or β-actin) was amplified simultaneously. All reactions were repeated at least once. […]
In contrast, normal breast and 3 of 4 tested colon mucosa samples had readily detectable p16 message. […]

[3] = system: p16; experiment: Re-expression of p16 (RT-PCR) after 5-deoxyazacytidine in methylated lung and head and neck cancer cell lines
Procedure: as §2
In the methylation studies, the cDNA was then amplified by PCR using the forward primer for exon 1 and the reverse primer for exons 2 or 3 of CDKN2/p16 yielding a 428 or […] fragment respectively, which was run on 1.5% agarose gel. As a control, the […] fragment of p53 (or β-actin) was amplified simultaneously. All reactions were repeated at least once.
as §1
(§3) In order to test the hypothesis that 5′ CpG island methylation of p16 indeed blocks gene expression, five methylated cell lines (3 NSCLC and 2 HNSCC) were subjected for 3-5 days to different dosages (0.3-1 mmol) of the demethylating agent 5-deoxyazacytidine.

[4] = system: 5′ CpG island of p16; experiment: Southern blot of 5′ CpG island methylation of p16 after 5-deoxyazacytidine
Procedure: Southern blots were performed as described (de Bustros, et al., Proc. Natl. Acad. Sci. U.S.A., 85:5693-5697, 1988). Briefly, […] of genomic DNA were digested with of EcoRI (10 U/mg) alone or in combination with the methylation-sensitive enzymes SmaI, EagI or SacII (15 U/mg each) for 16 h as specified by the manufacturers (Gibco-BRL and New England Biolabs), run on a 1% agarose gel, transferred to a Zeta-Probe GT nylon membrane (Bio-Rad), and probed with 25 ng of the 0.35 kb and 0.5 kb PCR products of exons 1 and 2 of p16 after random primer labelling (Feinberg, A. P. & Vogelstein, B. A, Annal. Biochem. 137:266-267, 1984). The primer sequences for the PE1 probe are as follows: sense 5′ GAAGAAAGAGGAGGGGCTG (SEQ ID NO:20), and antisense 5′ […] (SEQ ID NO:21), amplified with an annealing temperature of 60° C. by adding 3.6% formamide to the PCR buffer. The c-abl probe was provided by J.-P. Issa. The blots were then exposed in a phosphorimager (MolecularDynamics). All cases with a partial methylation pattern were repeated to exclude imcomplete enzymatic activity.
as §1, §3

Nc1ncn([C@H]2C[C@H](O)[C@@H](CO)O2)c(=O)n1 [5-deoxyazacytidine]
effects on cell growth, morphology, and viability [1]: profound effects
p16 mRNA by RT-PCR after treatment [2]: p16 gene mRNA was seen; also recorded: detectable p16 mRNA
re-expression of p16 message by RT-PCR ([3]; five methylated cell lines (3 NSCLC and 2 HNSCC), 0.3-1 mmol, 3-5 days, each dose and time tested): re-expressed the message of p16
re-expression of p16 (FIG. 5b) ([3]; methylated HNSCC cell lines (lanes 4 and 6)): re-express p16
reexpression of p16 message on reversal of methylation ([3]; methylated cell lines, summary statement): reexpression of p16 message
re-expression of p16, 428 bp RT-PCR product (FIG. 5d) ([3]; transcriptionally silenced lines U1752 and H157, all doses and times): re-express p16
demethylation of p16 5′ CpG island, EcoRI and SmaI Southern (FIG. 5c) ([4]; line H157): Partial demethylation
demethylation of p16 5′ CpG island, EcoRI and SmaI Southern (FIG. 5c) ([4]; line H 1752, 1 and 0.5 mmol, 3 days and 5 days, all dosages and time points): demethylation was seen
demethylation of the monitored CpG sites ([4]; methylated cell lines, associated with reversal of the transcriptional block of p16): partial demethylation
